Patent US20260199484A1, “PROTAC DEGRADERS OF MLLT1 AND/OR MLLT3” (DARK BLUE THERAPEUTICS LTD, priority 2024, published 2026)
pIC50: −log10 of the molar value.

How the values were obtained:
[1] = tested on: MV4-11 cells; assay: MV4-11 cellular proliferative assay, Assay Format A (CellTiter-Glo, 120 h); format: cell-based; details: Homo sapiens, Assay format A, 120 h, read-out: IC50 (MV4-11 cellular proliferative assay)
Method: An MV4-11 proliferation assay was used to test the ability of compounds to reduce cell viability. MV4-11 cells (ATCC #CRL9591) were grown in IMDM medium (11510596, Gibco) supplemented with 10% fetal bovine serum (F7524, Gibco) and 1% Penicillin/Streptomycin (15140-122, Gibco) at 37° C. with 5% CO2. Cells were seeded in 384-well Elplasia plates (4447, Corning) at a density of 50 cells/well and treated with vehicle (DMSO) or compounds (10 serial semi-log dilutions, 30 μM as top concentration).
After 120 hours of treatment, cells were incubated for 10 min at RT with the CellTiter-Glo (CTG) reagent (G7571, Promega). Measurement of the luminescence signal was performed on a microplate reader (Ensight, PerkinElmer). CTG reagent measures the amount of ATP, which is directly proportional to the number of cells, to determine the number of viable cells in culture.
The data were analysed as follows:
[formula] • where x is the measured raw signal value of a well, (cr) is the median of the measured signal values for the Central Reference (DMSO) wells on a plate, (sr) is the median of the measured signal values for the Scale Reference (reference compound) wells on a plate.
[formula] • where the experimental set-up assumes the Hill parameters in certain ranges: S0~Central Reference (CR) from normalization (=Bottom), Sinf~Scale Reference (SR) from normalization (=Top), nHill ~1, AC50~within the measured concentration range.

[2] = target: T1, MLLT1 (Homo sapiens, UniProt Q03111); assay: MLLT1 degradation assay in MV4-11 cells (JESS, 24 h); format: cell-based; design: endogenous in cells; host or cells: MV4-11 (ATCC CRL-9591); details: vs DMSO control
T1 sequence (Q03111 1-559): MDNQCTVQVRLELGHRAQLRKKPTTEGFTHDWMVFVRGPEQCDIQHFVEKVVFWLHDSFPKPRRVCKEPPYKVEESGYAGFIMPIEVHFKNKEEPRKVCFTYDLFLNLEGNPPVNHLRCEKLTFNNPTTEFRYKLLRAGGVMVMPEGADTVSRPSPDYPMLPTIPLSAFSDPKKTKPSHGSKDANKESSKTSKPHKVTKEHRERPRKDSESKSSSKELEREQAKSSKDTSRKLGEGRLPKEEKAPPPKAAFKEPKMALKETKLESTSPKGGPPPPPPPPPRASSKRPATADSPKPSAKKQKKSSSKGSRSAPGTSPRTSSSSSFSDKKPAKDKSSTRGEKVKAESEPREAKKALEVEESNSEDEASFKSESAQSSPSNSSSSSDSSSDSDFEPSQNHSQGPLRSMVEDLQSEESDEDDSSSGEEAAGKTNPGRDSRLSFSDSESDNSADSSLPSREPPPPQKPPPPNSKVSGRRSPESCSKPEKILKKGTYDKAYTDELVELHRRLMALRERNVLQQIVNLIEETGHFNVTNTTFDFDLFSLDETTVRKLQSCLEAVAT
Summary of the method: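 MV4-11 cells treated at 1000, 100 and 10 nM (0.1% DMSO) for 24 h at 37° C; lysates (4 ug protein) run on JESS capillary immunoassay with MLLT1 and GAPDH antibodies. Peak areas give % degradation versus DMSO, binned A (≥75%) to D (<25%).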

SMILES	pIC50 [1]	MLLT1% Degradation @ 0.01 μM [2]	MLLT1% Degradation @ 0.1 μM [2]	MLLT1% Degradation @ 1 μM [2]
Cc1nn(CCCCCN2CCN(c3cc4c(cc3F)C(=O)N(C3CCC(=O)NC3=O)C4=O)CC2)c2cc(C(=O)Nc3cc4[nH]c([C@H]5CCCN5C)cc4cn3)ccc12 (stereo partly drawn) [Example 23, 1-(5-(4-(2-(2,6-dioxopiperidin-3-yl)-6-fluoro-1,3-dioxoisoindolin-5-yl)piperazin-1-yl)pentyl)-3-methyl-N-(2-((R)-1-methylpyrrolidin-2-yl)-1H-pyrrolo[3,2-c]pyridin-6-yl)-1H-indazole-6-carboxamide]	> 7.00	A (Category A: A≥75% degradation)	A (Category A: A≥75% degradation)	A (Category A: A≥75% degradation)
Cc1nn(CCOCCOCCNc2cccc3c2C(=O)N(C2CCC(=O)NC2=O)C3=O)c2cc(C(=O)Nc3cc4[nH]c([C@H]5CCCN5C)cc4cn3)ccc12 (stereo partly drawn) [Example 25, 1-(2-(2-(2-((2-(2,6-dioxopiperidin-3-yl)-1,3-dioxoisoindolin-4-yl)amino)ethoxy)ethoxy)ethyl)-3-methyl-N-(2-((R)-1-methylpyrrolidin-2-yl)-1H-pyrrolo[3,2-c]pyridin-6-yl)-1H-indazole-6-carboxamide]	> 7.00		A (Category A: A≥75% degradation)	A (Category A: A≥75% degradation)
Cc1nn(CCOCCNc2cccc3c2C(=O)N(C2CCC(=O)NC2=O)C3=O)c2cc(C(=O)Nc3cc4[nH]c([C@H]5CCCN5C)cc4cn3)ccc12 (stereo partly drawn) [Example 26, 1-(2-(2-((2-(2,6-dioxopiperidin-3-yl)-1,3-dioxoisoindolin-4-yl)amino)ethoxy)ethyl)-3-methyl-N-(2-((R)-1-methylpyrrolidin-2-yl)-1H-pyrrolo[3,2-c]pyridin-6-yl)-1H-indazole-6-carboxamide]	> 7.00		A (Category A: A≥75% degradation)	A (Category A: A≥75% degradation)
Cc1nn(CCCC2CCN(c3cccc4c3C(=O)N(C3CCC(=O)NC3=O)C4=O)CC2)c2cc(C(=O)Nc3cc4[nH]c([C@H]5CCCN5C)cc4cn3)ccc12 (stereo partly drawn) [Example 27, 1-(3-(1-(2-(2,6-dioxopiperidin-3-yl)-1,3-dioxoisoindolin-4-yl)piperidin-4-yl)propyl)-3-methyl-N-(2-((R)-1-methylpyrrolidin-2-yl)-1H-pyrrolo[3,2-c]pyridin-6-yl)-1H-indazole-6-carboxamide]	> 7.00	A (Category A: A≥75% degradation)	A (Category A: A≥75% degradation)	A (Category A: A≥75% degradation)
Cc1nn(CCCCCC2CCN(c3cccc4c3C(=O)N(C3CCC(=O)NC3=O)C4=O)CC2)c2cc(C(=O)Nc3cc4[nH]c([C@H]5CCCN5C)cc4cn3)ccc12 (stereo partly drawn) [Example 29, 1-(5-(1-(2-(2,6-dioxopiperidin-3-yl)-1,3-dioxoisoindolin-4-yl)piperidin-4-yl)pentyl)-3-methyl-N-(2-((R)-1-methylpyrrolidin-2-yl)-1H-pyrrolo[3,2-c]pyridin-6-yl)-1H-indazole-6-carboxamide]	> 7.00	B (Category B: 50%≤B<75% degradation)	A (Category A: A≥75% degradation)	A (Category A: A≥75% degradation)
Cc1nn(CCCCCC#Cc2cccc3c2CN(C2CCC(=O)NC2=O)C3=O)c2cc(C(=O)Nc3cc4[nH]c([C@H]5CCCN5C)cc4cn3)ccc12 (stereo partly drawn) [Example 30, 1-(7-(2-(2,6-dioxopiperidin-3-yl)-1-oxoisoindolin-4-yl)hept-6-yn-1-yl)-3-methyl-N-(2-((R)-1-methylpyrrolidin-2-yl)-1H-pyrrolo [3,2-c]pyridin-6-yl)-1H-indazole-6-carboxamide]	> 7.00	A (Category A: A≥75% degradation)	A (Category A: A≥75% degradation)	A (Category A: A≥75% degradation)
Cc1nn(CCCOCC#Cc2cccc3c2CN(C2CCC(=O)NC2=O)C3=O)c2cc(C(=O)Nc3cc4[nH]c([C@H]5CCCN5C)cc4cn3)ccc12 (stereo partly drawn) [Example 31, 1-(3-((3-(2-(2,6-dioxopiperidin-3-yl)-1-oxoisoindolin-4-yl)prop-2-yn-1-yl)oxy)propyl)-3-methyl-N-(2-((R)-1-methylpyrrolidin-2-yl)-1H-pyrrolo[3,2-c]pyridin-6-yl)-1H-indazole-6-carboxamide]	> 7.00	C (Category C: 25%≤C<50% degradation)	B (Category B: 50%≤B<75% degradation)	A (Category A: A≥75% degradation)
Cc1nn(CCCC#Cc2cccc3c2CN(C2CCC(=O)NC2=O)C3=O)c2cc(C(=O)Nc3cc4[nH]c([C@H]5CCCN5C)cc4cn3)ccc12 (stereo partly drawn) [Example 32, 1-(5-(2-(2,6-dioxopiperidin-3-yl)-1-oxoisoindolin-4-yl)pent-4-yn-1-yl)-3-methyl-N-(2-((R)-1-methylpyrrolidin-2-yl)-1H-pyrrolo[3,2-c]pyridin-6-yl)-1H-indazole-6-carboxamide]	> 7.00	B (Category B: 50%≤B<75% degradation)	A (Category A: A≥75% degradation)	B (Category B: 50%≤B<75% degradation)
Cc1nn(CCCCCC#Cc2cccc3c2C(=O)N(C2CCC(=O)NC2=O)C3=O)c2cc(C(=O)Nc3cc4[nH]c([C@H]5CCCN5C)cc4cn3)ccc12 (stereo partly drawn) [Example 33, 1-(7-(2-(2,6-dioxopiperidin-3-yl)-1,3-dioxoisoindolin-4-yl)hept-6-yn-1-yl)-3-methyl-N-(2-((R)-1-methylpyrrolidin-2-yl)-1H-pyrrolo[3,2-c]pyridin-6-yl)-1H-indazole-6-carboxamide]	> 7.00	B (Category B: 50%≤B<75% degradation)	B (Category B: 50%≤B<75% degradation)	A (Category A: A≥75% degradation)
CN1CCC[C@@H]1c1cc2cnc(NC(=O)c3ccc4c(cnn4CCCCCCCCNc4cccc5c4C(=O)N(C4CCC(=O)NC4=O)C5=O)c3)cc2[nH]1 (stereo partly drawn) [Example 36, 1-(8-((2-(2,6-dioxopiperidin-3-yl)-1,3-dioxoisoindolin-4-yl)amino)octyl)-N-(2-((R)-1-methylpyrrolidin-2-yl)-1H-pyrrolo[3,2-c]pyridin-6-yl)-1H-indazole-5-carboxamide]	> 7.00	A (Category A: A≥75% degradation)	A (Category A: A≥75% degradation)	A (Category A: A≥75% degradation)
CN1CCC[C@@H]1c1cc2cnc(NC(=O)c3ccc4c(cnn4CCCCCCCC#Cc4cccc5c4CN(C4CCC(=O)NC4=O)C5=O)c3)cc2[nH]1 (stereo partly drawn) [Example 38, 1-(9-(2-(2,6-dioxopiperidin-3-yl)-1-oxoisoindolin-4-yl)non-8-yn-1-yl)-N-(2-((R)-1-methylpyrrolidin-2-yl)-1H-pyrrolo[3,2-c]pyridin-6-yl)-1H-indazole-5-carboxamide]	> 7.00	B (Category B: 50%≤B<75% degradation)	A (Category A: A≥75% degradation)	B (Category B: 50%≤B<75% degradation)
